The target in data set [1] is Amyloid-beta precursor protein (Homo sapiens) (UniProt P05067). The data set can be described thus: Inhibition of amyloid beta (1 to 42) (unknown origin) self induced aggregation assessed as difference between final and initial fluorescence emission at 40 to 5000 uM […] by ThT-based fluorometric method (reference value: 52 +/- 7 a.u.).
For data set [2] the target is unchanged. Description: Inhibition of amyloid beta (1 to 42) (unknown origin) self induced aggregation assessed as fluorescence emission rate constant K at 40 to 5000 uM […] in presence of trehalose by ThT-based fluorometric method (reference value: 1.3 +/- 0.1).
Data set [3] has the same target. The data set can be described thus: Inhibition of amyloid beta (1 to 42) (unknown origin) self induced aggregation assessed as time at which amplitude of ThT emission is 50% of difference between final and initial fluorescence emission at 40 to 5000 uM in presence of trehalose by ThT-based fluorometric method (reference value: 11 +/- 1 hrs).
Data set [4] has the same target. The data set can be described thus: Inhibition of amyloid beta (1 to 42) (unknown origin) self induced aggregation assessed as lag time at 40 to 5000 uM […] by ThT-based fluorometric method (reference value: 8.3 +/- 0.7 hrs).
For data set [5] the target is unchanged. The data set can be described thus: Inhibition of amyloid beta (1 to 42) (unknown origin) self induced aggregation assessed as reduction in protofibrils formation at 500 uM after 30 hrs by atomic force microscopic analysis.
For data set [6] the target is unchanged. The data set can be described thus: Inhibition of amyloid beta (1 to 42) (unknown origin) self induced aggregation assessed as difference between final and initial fluorescence emission at 40 to 5000 uM […] in presence of trehalose by ThT-based fluorometric method (reference value: 52 +/- 7 a.u.).
For data set [7] the target is unchanged. Description: Inhibition of amyloid beta (1 to 42) (unknown origin) self induced aggregation […] by ThT-based fluorometric method.
Data set [8] has the same target. The data set can be described thus: Inhibition of amyloid beta (1 to 42) (unknown origin) self induced aggregation assessed as fluorescence emission rate constant K at 40 to 5000 uM […] by ThT-based fluorometric method (reference value: 1.3 +/- 0.1).
Data set [9] in a line: Inhibition of cupric ion-mediated amyloid beta (1 to 40) aggregation at 20 mM at pH 6.6 after 3 hrs by light scattering assay.
Data set [10] addresses Amyloid-beta precursor protein (Homo sapiens) (UniProt P05067). The data set can be described thus: Inhibition of amyloid beta (1 to 42) (unknown origin) self induced aggregation assessed as time at which amplitude of ThT emission is 50% of difference between final and initial fluorescence emission at 40 to 5000 uM […] by ThT-based fluorometric method (reference value: 11 +/- 1 hrs).

Data set [11] has the same target. Description: Inhibition of amyloid beta (1 to 42) (unknown origin) self induced aggregation assessed as reduction in flat ribbons formation at 500 uM after 30 hrs by atomic force microscopic analysis.
For data set [12] the target is unchanged. Description: Inhibition of amyloid beta (1 to 42) (unknown origin) self induced aggregation assessed as Tlag at 40 to 5000 uM in presence of trehalose by ThT-based fluorometric method (reference value: 8.3 +/- 0.7 hrs).
Data set [13] has the same target. Description: Inhibition of amyloid beta (1 to 42) (unknown origin) self induced aggregation assessed as average assembled nanostructure height at 500 uM after 30 hrs by atomic force microscopic analysis.
The nature of data set [14]: Stability of the compound assessed as human recombinant carnosinase mediated compound hydrolysis at 0.5 mM after 2.5 hrs by RP-HPLC analysis. The note with it: 500 µM. The data set is classed as ADME.
Data set [15] in a line: Antiglycating activity in phosphate buffer assessed as ACR-compound adduct formation at 10 mM at pH 7.4 after 1 to 24 hrs by HPLC-MS/MS spectra analysis. Format: physicochemical. Conditions: pH 7.4, 10000 µM.
Data set [16] in a line: Antiglycating activity in phosphate buffer assessed as ACR levels at 10 mM at pH 7.4 after 24 hr by RP-HPLC analysis relative to control. The data set is classed as physicochemical. Conditions: pH 7.4, 24 h, 10000 µM.
Data set [17] in a line: Antiglycating activity in phosphate buffer assessed as decrease in ACR levels at 10 mM at pH 7.4 by RP-HPLC analysis. Format: physicochemical. The note with it: pH 7.4, 10000 µM, TDE = time-dependent effect.
A short description of data set [18]: Drug metabolism assessed as human recombinant carnosinase mediated compound hydrolysis at 0.5 mM after 1.5 hrs by RP-HPLC analysis. The data set is classed as ADME. Conditions: 500 µM.
The nature of data set [19]: Antiglycating activity in phosphate buffer assessed as decrease in ACR levels at 10 mM at pH 7.4 after 1 hr by RP-HPLC analysis relative to control. Format: physicochemical. Set-up: scale not given: the % may be the effect or the level left. The note with it: pH 7.4, 1 h, 10000 µM.
The nature of data set [20]: Antiglycating activity in phosphate buffer assessed as decrease in ACR levels at 10 mM at pH 7.4 up to 4 hrs by RP-HPLC analysis relative to control. The data set is classed as physicochemical. Set-up: scale not given: the % may be the effect or the level left. Conditions: pH 7.4, 4 h, 10000 µM.

Active and inactive are the calls of the source. The rule behind the calls is not given here.

Chain of Amyloid-beta precursor protein (Homo sapiens) (P05067 whole entry): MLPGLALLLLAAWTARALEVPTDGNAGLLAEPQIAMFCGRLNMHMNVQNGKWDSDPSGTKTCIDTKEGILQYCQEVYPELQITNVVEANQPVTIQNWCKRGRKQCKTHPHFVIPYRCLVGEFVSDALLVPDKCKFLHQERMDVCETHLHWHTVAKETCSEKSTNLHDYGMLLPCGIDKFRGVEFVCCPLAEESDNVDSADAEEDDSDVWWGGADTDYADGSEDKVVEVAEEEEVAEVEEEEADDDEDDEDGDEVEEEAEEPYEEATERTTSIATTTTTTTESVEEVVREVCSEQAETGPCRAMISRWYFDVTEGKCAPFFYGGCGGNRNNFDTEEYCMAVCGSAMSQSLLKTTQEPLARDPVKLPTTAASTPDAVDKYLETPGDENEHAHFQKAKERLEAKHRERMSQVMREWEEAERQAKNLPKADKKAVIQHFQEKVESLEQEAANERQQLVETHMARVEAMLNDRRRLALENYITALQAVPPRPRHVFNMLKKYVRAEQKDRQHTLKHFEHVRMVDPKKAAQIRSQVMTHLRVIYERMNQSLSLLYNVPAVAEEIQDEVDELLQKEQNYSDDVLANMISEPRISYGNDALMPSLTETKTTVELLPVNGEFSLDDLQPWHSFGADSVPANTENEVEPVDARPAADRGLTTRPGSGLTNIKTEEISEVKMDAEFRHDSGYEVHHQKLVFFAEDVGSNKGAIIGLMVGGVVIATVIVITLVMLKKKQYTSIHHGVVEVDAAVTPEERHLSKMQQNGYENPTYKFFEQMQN

On to `NCCC(=O)N[C@@H](Cc1c[nH]cn1)C(=O)O`, for which the Activity is 33 a.u in [1], 31 a.u in data set [6] and “Dose-dependent effect” in [7]. Besides, the K amounted to 2.7 in data set [2] and 1.9 in data set [8]. The results for the T1/2 in data set [3] and in data set [10] were 5.8 h and 7.8 h, respectively. In addition, the Tlag in data set [4] was 3.9 h; in data set [12] it was 4.3 h. For the same compound, the inhibition entry in data set [5] and in data set [11] was “inactive” throughout. The inhibition result in data set [9] is “Active”.

Take `OC[C@H]1O[C@H](O[C@H]2O[C@H](CO)[C@@H](O)[C@H](O)[C@H]2O)[C@H](O)[C@@H](O)[C@@H]1O`: the Activity was 37 a.u in [1] and “Dose-dependent effect” in [7]. For the same compound, the Tlag in data set [4] was 4.7 h. Besides, in data set [8], the K was 1.7. Moreover, the T1/2 in data set [10] amounted to 8.3 h.

With `O=C(CCNC[C@H]1O[C@H](O[C@H]2O[C@H](CO)[C@@H](O)[C@H](O)[C@H]2O)[C@H](O)[C@@H](O)[C@@H]1O)N[C@@H](Cc1c[nH]cn1)C(=O)O`, the Activity was 6 a.u in data set [1]; 2.1 nm in [13]; “Dose-dependent effect” in [7]; “Active” in [15]; 1% in data set [16]; “Tde” in data set [17]. Further, the Stability result in data set [14] was “Stable”. The Tlag in [4] is 2.7 h. Besides, the inhibition entry in data set [5], in [9] and in data set [11] was “Active” each time. In addition, in data set [8], the K came to 0.7. In addition, the T1/2 in data set [10] is 4.1 h.

As for `NCCC(=O)N[C@@H](Cc1cnc[nH]1)C(=O)O` [CARNOSINE], in data set [18], the Drug metabolism result is listed as “Metabolite_Detected”. The Activity result in data set [15] is recorded as “Active”; in [16], 0%; in data set [19], 40%; in data set [20], 0%.

The values above are taken from ChEMBL document CHEMBL4052638, “Multitarget trehalose-carnosine conjugates inhibit Aβ aggregation, tune copper(II) activity and decrease acrolein toxicity” (Eur J Med Chem, 2017).
